US20100317863A1, “Glucocorticoid Mimetics, Methods of Making Them, Pharmaceutical Compositions and Uses Thereof” (BOEHRINGER INGELHEIM INTERNATIONAL GMBH, priority 2007, published 2010)
pIC50: −log10 of the molar value.

The compounds below were run against T1, human glucocorticoid receptor (GR) complex (Homo sapiens, UniProt P04150) (assay: Glucocorticoid Receptor Competitive Binding Assay (fluorescence polarization)). Settings: competition with TAMRA-labeled dexamethasone; potent activity.
T1 construct: made in house; host or cells: insect expression system (baculovirus lysate)
T1 sequence (P04150 1-777): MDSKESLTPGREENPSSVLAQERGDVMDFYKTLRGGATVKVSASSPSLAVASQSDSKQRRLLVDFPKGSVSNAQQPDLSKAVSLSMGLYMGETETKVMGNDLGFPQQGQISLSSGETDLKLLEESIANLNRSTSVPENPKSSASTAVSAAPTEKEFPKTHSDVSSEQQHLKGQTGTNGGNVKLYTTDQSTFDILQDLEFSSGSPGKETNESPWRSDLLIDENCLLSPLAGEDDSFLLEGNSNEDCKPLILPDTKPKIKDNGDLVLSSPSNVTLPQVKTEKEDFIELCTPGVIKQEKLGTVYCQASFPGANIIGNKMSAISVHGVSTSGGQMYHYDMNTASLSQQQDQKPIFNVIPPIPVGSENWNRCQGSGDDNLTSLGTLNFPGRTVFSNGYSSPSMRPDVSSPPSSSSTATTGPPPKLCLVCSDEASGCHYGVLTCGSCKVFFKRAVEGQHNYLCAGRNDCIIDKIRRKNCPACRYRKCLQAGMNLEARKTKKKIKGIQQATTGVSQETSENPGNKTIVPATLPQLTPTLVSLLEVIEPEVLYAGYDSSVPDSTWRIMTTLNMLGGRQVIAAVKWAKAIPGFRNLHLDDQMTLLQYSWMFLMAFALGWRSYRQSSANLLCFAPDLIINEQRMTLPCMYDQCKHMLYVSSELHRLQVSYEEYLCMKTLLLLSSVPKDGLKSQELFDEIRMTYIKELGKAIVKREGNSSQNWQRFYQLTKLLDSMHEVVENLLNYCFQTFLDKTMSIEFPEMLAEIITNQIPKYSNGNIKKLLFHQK
Experimental: Compounds of the invention were evaluated for binding to the steroid receptor by a fluorescence polarization competitive binding assay. Detailed descriptions for preparation of recombinant glucocorticoid receptor (GR) complex used in the assay is described in U.S. Patent Application Publication No. US 2003/0017503, filed May 20, 2002, and incorporated herein by reference in its entirety. Preparation of the tetramethylrhodamine (TAMRA)-labeled dexamethasone probe was accomplished using a standard literature procedure (M. Pons et al., J. Steroid Biochem., 1985, 22, pp. 267-273).
This assay uses fluorescence polarization (FP) to quantitate the ability of test compounds to compete with tetramethylrhodamine (TAMRA)-labeled dexamethasone for binding to a human glucocorticoid receptor (GR) complex prepared from an insect expression system. The assay buffer was: 10 mM TES, 50 mM KCl, 20 mM Na2MoO4.2H2O, 1.5 mM EDTA, 0.04% w/v CHAPS, 10% v/v glycerol, 1 mM dithiothreitol, pH 7.4. Test compounds were dissolved to 1 mM in neat DMSO and then further diluted to 10× assay concentration in assay buffer supplemented with 10% v/v DMSO. Test compounds were serially diluted at 10× assay concentrations in 10% DMSO-containing buffer in 96-well polypropylene plates. Binding reaction mixtures were prepared in 96-well black Dynex microtiter plates by sequential addition of the following assay components to each well: 15 μL of 10× test compound solution, 85 μL of GR-containing baculovirus lysate diluted 1:170 in assay buffer, and 50 μL of 15 nM TAMRA-labeled dexamethasone. Positive controls were reaction mixtures containing no test compound; negative controls (blanks) were reaction mixtures containing 0.7 μM to 2 μM dexamethasone. The binding reactions were incubated for 1 hour at room temperature and then read for fluorescence polarization in the LJL Analyst set to 550 nm excitation and 580 nm emission, with the Rhodamine 561 dichroic mirror installed. IC50 values were determined by iterative non-linear curve fitting of the FP signal data to a 4-parameter logistic equation.

pIC50, ≥ 7.00:
CC[C@@H](Cn1cc(C#N)c2cc(F)ccc21)NS(=O)(=O)c1c(C)cc(C)cc1N [2-Amino-N—[(S)-1-(3-cyano-5-fluoroindol-1-ylmethyl)propyl]-4,6-dimethylbenzenesulfonamide], Cc1cc(C)c(S(=O)(=O)N(C)[C@@H](C)Cn2cc(C#N)c3cccc(F)c32)c(N)c1 [2-Amino-N—[(S)-2-(3-cyano-7-fluoroindol-1-yl)-1-methylethyl]-4,6,N-trimethylbenzenesulfonamide], CC[C@@H](Cn1cc(C=O)c2cc(F)ccc21)NS(=O)(=O)c1c(C)cc(C)cc1C [N—[(S)-1-(5-Fluoro-3-formylindol-1-ylmethyl)propyl]-2,4,6-trimethylbenzenesulfonamide], Cc1cc(C)c(S(=O)(=O)NC(Cn2cc(C)c3ccccc32)C(C)C)c([N+](=O)[O-])c1 (stereo not drawn) [2,4-Dimethyl-N-[2-methyl-1-(3-methylindol-1-ylmethyl)propyl]-6-nitrobenzenesulfonamide], CCC(Cn1cc(C)c2ccccc21)NS(=O)(=O)c1c(Cl)cc(Cl)cc1Cl (stereo not drawn) [2,4,6-Trichloro-N-[1-(3-methylindol-1-ylmethyl)propyl]benzenesulfonamide], Cc1cc(C)c(S(=O)(=O)N[C@@H](C)Cn2cc(CC#N)c3cccc(F)c32)c(N)c1 [2-Amino-N—[(S)-2-(3-cyanomethyl-7-fluoroindol-1-yl)-1-methylethyl]-4,6-dimethylbenzenesulfonamide], CC[C@@H](Cn1cc(Br)c2cccnc21)NS(=O)(=O)c1c(C)cc(C)cc1C [N—[(S)-1-(3-Bromopyrrolo[2,3-b]pyridin-1-ylmethyl)propyl]-2,4,6-trimethylbenzenesulfonamide], CC[C@@H](Cn1cc(-c2ccc(C)cc2)c2ccccc21)NS(=O)(=O)c1c(C)cc(C)cc1C [2,4,6-Trimethyl-N—[(S)-1-(3-p-tolylindol-1-ylmethyl)propyl]benzenesulfonamide], CC[C@@H](Cc1ccc2ccn(C)c2c1)NS(=O)(=O)c1c(C)cc(C)cc1C [2,4,6-Trimethyl-N—[(S)-1-(1-methyl-1H-indol-6-ylmethyl)propyl]benzenesulfonamide], CC[C@@H](Cn1cc(-c2cccnc2)c2ccccc21)NS(=O)(=O)c1c(C)cc(C)cc1C [2,4,6-Trimethyl-N—[(S)-1-(3-pyridin-3-ylindol-1-ylmethyl)propyl]benzenesulfonamide], CC[C@@H](Cn1c(C)cc2cc(Cl)ccc21)NS(=O)(=O)c1c(C)cc(C)cc1C [N—[(S)-1-(5-Chloro-2-methylindol-1-ylmethyl)propyl]-2,4,6-trimethylbenzenesulfonamide], CC[C@@H](Cn1cc(C#N)c2cc(F)ccc21)NS(=O)(=O)c1c(Cl)cc(Br)cc1Cl [4-Bromo-2,6-dichloro-N—[(S)-1-(3-cyano-5-fluoroindol-1-ylmethyl)propyl]benzenesulfonamide], Cc1cc(C)c(S(=O)(=O)N[C@@H](C)Cn2cc(C#N)c3cc(F)ccc32)c(N)c1 [2-Amino-N—[(S)-2-(3-cyano-5-fluoroindol-1-yl)-1-methylethyl]-4,6-dimethylbenzenesulfonamide], Cc1cc(C)c(S(=O)(=O)N[C@@H](C)Cn2cc(C)c3cccc(F)c32)c(N)c1 [2-Amino-N—[(S)-2-(7-fluoro-3-methylindol-1-yl)-1-methylethyl]-4,6-dimethylbenzenesulfonamide], Cc1cn(CC(NS(=O)(=O)c2c(N)cc(Cl)cc2Cl)C(C)C)c2ccccc12 (stereo not drawn) [2-Amino-4,6-dichloro-N-[2-methyl-1-(3-methylindol-1-ylmethyl)propyl]benzenesulfonamide], CC[C@@H](Cc1cccc2ccn(C)c12)NS(=O)(=O)c1c(C)cc(C)cc1C [2,4,6-Trimethyl-N—[(S)-1-(1-methyl-1H-indol-7-ylmethyl)propyl]benzenesulfonamide], Cc1cc(C)c(S(=O)(=O)N[C@H](Cn2cc(C)c3ccccc32)C(C)C)c(N)c1 [2-Amino-4,6-dimethyl-N—[(S)-2-methyl-1-(3-methylindol-1-ylmethyl)propyl]benzenesulfonamide], CC[C@@H](Cc1cccc2c1ccn2C)NS(=O)(=O)c1c(C)cc(C)cc1C [2,4,6-Trimethyl-N—[(S)-1-(1-methyl-1H-indol-4-ylmethyl)propyl]benzenesulfonamide], CC[C@@H](Cn1cc(C)c2ccccc21)NS(=O)(=O)c1c(C)cc(C)cc1Br [2-Bromo-4,6-dimethyl-N—[(S)-1-(3-methylindol-1-ylmethyl)propyl]benzenesulfonamide], CC(C)C(Cn1ccc2ccccc21)NS(=O)(=O)c1c(N)cc(Cl)cc1Cl (stereo not drawn) [2-Amino-4,6-dichloro-N-(1-indol-1-ylmethyl-2-methylpropyl)benzenesulfonamide], CC[C@@H](Cn1cc(C#N)c2cc(F)ccc21)NS(=O)(=O)c1c(C)cc(C)cc1C [N—[(S)-1-(3-Cyano-5-fluoroindol-1-ylmethyl)propyl]-2,4,6-trimethylbenzenesulfonamide]
